Among the data in PubChem BioAssay AID488890 (Southern Research Specialized Biocontainment Screening …, 2010) are IC50 values, retold here.

Each structure is given as a SMILES string. Inconclusive results are not listed. Activity calls are given as the source filed them. No rule for the calls is given here.

For this test, the system named is Mycobacterium tuberculosis non-replicating, growth inhibition. Briefly: growth inhibition of non-replicating M. tuberculosis (AID 488890).
As usually defined, the IC50 is the concentration that gives 50% inhibition. On to `CC(=O)N1CCN(c2cc3c(cc2F)c(=O)c(C(=O)O)cn3C2CC2)CC1`, for which the IC50 is 1.42 µM.
In the case of `Cc1ccc(NC(=O)CC2SC3=NCCCN3C2=O)c(C)c1` (centres undefined) it was 18.8 µM (inactive).
In the case of `CCCOc1ccc(N2CC(C(=O)Nc3ccccn3)CC2=O)cc1` (centres undefined) it was 10.9 µM (inactive); in that of `CCOC(=O)c1c(C)n(C)c2ccc(OC(C)C(=O)OC)cc12` (centres undefined), 14.2 µM (inactive); in that of `Cc1ccc(N2NC(=O)/C(=C/C=C/c3ccco3)C2=O)cc1C`, 3.72 µM.
In the case of `Cc1cc(C)c2ccc(/C=N/O)nc2c1O` it was 5.77 µM.
As to `Cc1nnc(SCCC(=O)Nc2ccc(Cl)cc2)o1`, the IC50 was 39.2 µM (inactive).
To `Nc1scc(-c2ccncc2)c1Cl` belongs 14 µM (inactive); to `O=c1oc2ccccc2c2c1nc(C(F)(F)F)n2-c1ccccc1`, 2 µM.
To `COc1ccc2nc(C)cc(N/N=C/c3ccc(F)cc3)c2c1` belongs 7.75 µM; to `Cc1ccc(SCCC(=O)OCC(=O)NCC2CCCCC2)cc1`, 16.6 µM (inactive); to `CC(CCc1ccccc1)NC(=O)COC(=O)c1cccs1` (centres undefined), 13.4 µM (inactive).
To `Cc1nnc(N/N=C/c2ccc(-c3ccccc3F)o2)n1N` belongs 10.6 µM (inactive).
Take `COc1cccc(C(=O)OCn2nnc3ccccc3c2=O)c1OC`: the IC50 is 19 µM (inactive).
Turning to `Cc1ccc(NC(=O)CO/N=C/c2ccc(N(C)C)cc2)cc1`, the IC50 is 7.84 µM.
In the case of `CN(C)CCCNc1nc2sc3c(c2c(=O)n1CCc1ccccc1)CCCCC3` it was 12 µM (inactive).
Take `Cc1ccccc1Cn1cc(NC(=O)c2noc(C(C)C)c2[N+](=O)[O-])cn1`: the IC50 is 7.58 µM.
Consider `O=C(COC(=O)c1ccc(Br)o1)Nc1ncc([N+](=O)[O-])s1`, for which the IC50 is 14.4 µM (inactive).
To `NC(=S)n1[nH]c(-c2ccc([N+](=O)[O-])cc2)c(N=Nc2ccc(O)cc2)c1=O` belongs 18.5 µM (inactive); to `CC1(c2nnc(-c3ccc(F)cc3)o2)CC(c2cccc(Cl)c2)=NO1` (centres undefined), 2.9 µM; to `O=C(c1cccc2cccc(O)c12)N1CCCCC1`, 3.82 µM.
Turning to `COc1ccc2c(c1)C(=C(C#N)C#N)C(=O)N2CCc1ccccc1`, the IC50 was 25 µM (inactive).
In the case of `CN(CCCCOc1ccc(F)cc1)Cc1ccccc1` it was 22.9 µM (inactive); in that of `CC1=CC2=NC(=O)/C(=C\c3ccc(OC(=O)c4ccco4)cc3)C(=N)N2O1`, 5.99 µM; in that of `O=c1oc2ccccc2nc1/C=C(\O)c1ccc(Br)cc1`, 6.03 µM.
In the case of `CCCOC(=O)c1cc(-c2ccc(C=O)o2)ccc1Cl` it was 4.94 µM; in that of `OC(COc1ccccc1Cl)CN1CCN(CC(O)COc2ccccc2Cl)CC1` (centres undefined), 19 µM (inactive); in that of `CC(=O)Nc1sc2c(c1-c1nc3ccccc3s1)CCN(C(C)C)C2`, 6.35 µM.
Take `O=C(c1ccc(Cl)cc1)c1nnc(-c2ccncc2)o1`: the IC50 was 3.32 µM.
In the case of `O=C(Nc1nnc(-c2ccccc2Cl)o1)c1cccnc1` it was 23.2 µM (inactive); in that of `c1ccc(OCc2nn3c(-c4ccccn4)nnc3s2)cc1`, 23 µM (inactive); in that of `COc1cc(/C=C2/C(=O)NN(c3cccc(C)c3)C2=O)ccc1OC(=O)c1ccco1`, 5.53 µM.
To `Cc1ccc(C(=O)N/N=C/c2cccc3ccccc23)cn1` belongs 5.95 µM; to `O=C(CNC1CCCC1)Nc1ccc(N2CCCCCC2)cc1`, 10.7 µM (inactive).
In the case of `CC1=NN(C(=O)COc2ccccc2)C(O)(c2ccccc2)C1` (centres undefined) it was 1.36 µM; in that of `CCc1nnc(NC(=O)CN2CCN(c3ccccc3F)CC2)s1`, 29.2 µM (inactive).
As for `CC1(C(=O)OCC(=O)Nc2nnc(-c3ccccc3)o2)CC1(Cl)Cl` (centres undefined), the IC50 is 3.19 µM.
To `Cc1nn(-c2nc3ccccc3[nH]2)c(N)c1-c1ccc(Cl)cc1` belongs 4.88 µM; to `CCOC(=O)c1ccc(NC(=O)NS(=O)(=O)c2ccc(C)cc2)cc1`, 3.31 µM.
As for `CCCNC(=O)c1ccc(COc2ccc(C)cc2)o1`, the IC50 was 32.9 µM (inactive).
To `O=C(NNc1ccc([N+](=O)[O-])cc1)c1ccccc1Cl` belongs 9.32 µM.
To `Cn1ccsc1=NC(=O)c1ccccc1F` belongs 22.4 µM (inactive); to `CC1=NN(C(=O)c2ccccc2F)C(O)(c2ccc(Cl)cc2)C1` (centres undefined), 0.5 µM.
To `COc1cc(C(=O)CCN2CCC(c3ccccc3)C2)cc(OC)c1OC` (centres undefined) belongs 6.41 µM; to `COc1ccc(OC)c(NC(=O)C(=O)NNC(=O)C23CC4CC(CC(C4)C2)C3)c1`, 5.4 µM; to `O=[N+]([O-])c1ccc(CN2CCN(c3ccc(F)cc3)CC2)o1`, 0.45 µM.
As to `Cc1cc(C)n(-c2nc(NCCN(C)C)c3c4c(sc3n2)CCCC4)n1`, the IC50 is 9.66 µM.
To `CN(C)CC/C=C1\c2ccccc2Sc2cc(F)c(Cl)cc21` belongs 10.5 µM (inactive).
To `Cc1ccc(OCC(=O)OCc2c(C)noc2C)cc1C` belongs 11.7 µM (inactive).
In the case of `CN(C)S(=O)(=O)Oc1ccc(C(=O)Nc2cccc(C(F)(F)F)c2)cc1` it was 13.5 µM (inactive); in that of `O=C(N/N=C/c1ccc(Br)s1)c1ccncc1`, 0.47 µM; in that of `O=C(c1ccccc1)c1nc[nH]c1C(=O)Nc1ccccc1`, 11.5 µM (inactive).
Turning to `Cc1nc(-c2ccc(C(F)(F)F)cc2)sc1C(=O)NN`, the IC50 was 23.5 µM (inactive).
In the case of `Cc1cc(C)n(CC(=O)N/N=C/c2ccc([N+](=O)[O-])s2)n1` it was 24.4 µM (inactive); in that of `Cc1ccc(N=Nc2c(C)[nH]n(C(N)=S)c2=O)cc1C`, 0.57 µM; in that of `COc1ccc(C(=O)COC(=O)c2ccc([N+](=O)[O-])s2)cc1OC`, 2.8 µM.
To `O=C(N/N=C/C(Br)=C/c1ccccc1)c1ccncc1` belongs 3.89 µM.
To `Cc1ccc(C(=O)Nc2nccs2)cc1` belongs 19.8 µM (inactive); to `c1ccc(-c2nc3ccccn3c2NC2CCCC2)nc1`, 24.9 µM (inactive); to `CC1=CN2C(=N)/C(=C/c3ccc([N+](=O)[O-])o3)C(=O)N=C2S1`, 12.8 µM (inactive).
Take `O=C(NNC1=C(C(=O)C(F)(F)F)CCC1)c1ccccc1Cl`: the IC50 is 1.32 µM.
To `CC1Cc2ccccc2N1C(=O)COC(=O)c1ccc(Cl)nc1` (centres undefined) belongs 18.5 µM (inactive); to `COc1cccc(NC(=O)c2cc3ccccc3oc2=O)c1`, 15.2 µM (inactive).
To `COc1ccc(NC(=O)Nc2ccc(O)c3ccccc23)cc1` belongs 3.7 µM; to `CC(=O)c1ccc(Sc2nnnn2-c2ccccc2)c([N+](=O)[O-])c1`, 19.4 µM (inactive).
To `O=C(Nc1nnc(-c2ccccc2Cl)o1)c1ccco1` belongs 6.7 µM; to `Cc1ccccc1OCC(O)Cn1c(=N)n(Cc2ccccc2)c2ccccc21` (centres undefined), 7.63 µM.
Regarding `Cc1cnc(C(=O)NNC(=O)c2ccc(Br)cc2)cn1`, the IC50 is 4.88 µM.
In the case of `O=C(OCCCCN1C(=O)c2ccccc2C1=O)c1ccc(Br)o1` it was 6.06 µM.
In the case of `CC1CCCN(CCSc2ccc(Cl)cc2)C1` (centres undefined) it was 5.18 µM.
In the case of `O=C(NN=C1C2CC3CC1CC(Cl)(C3)C2)c1cccs1` it was 23.7 µM (inactive).
With `O=C(N/N=C\c1ccc([N+](=O)[O-])o1)C1COc2ccccc2O1` (centres undefined), the IC50 was 2.27 µM.
To `CCOC(=O)C1CCCN(Cc2nc(Cc3ccccc3Cl)no2)C1` (centres undefined) belongs 27.1 µM (inactive).
Turning to `CCOc1ccc(OCC(=O)OCc2cc(=O)n3cc(Br)ccc3n2)cc1`, the IC50 was 8.96 µM.
To `Cc1ccc(/C=C2/C(=O)NC(=O)N(CCc3ccc(F)cc3)C2=O)s1` belongs 16.7 µM (inactive); to `O=C(OCc1cccc([N+](=O)[O-])c1)c1ccc2ccccc2n1`, 7.25 µM; to `Cc1ccc(C(=O)NCCOc2cccc(C)c2)cc1`, 3.92 µM.
With `Clc1ccc(OCCCNCc2ccccc2)c2ccccc12`, the half-maximal inhibitory concentration (IC50) was 5.99 µM.
To `CCOC(=O)Nc1ccc2c(c1)N(C(=O)CCCl)c1ccccc1[S@]2=O` belongs 3.68 µM; to `CCOC(=O)c1ccc(N=C2SC(C(=O)Nc3ccc(C(=O)O)cc3)CC(=O)N2Cc2cccs2)cc1` (centres undefined), 35.1 µM (inactive).
To `Cc1ccc(CCC(=O)Nc2ccc([N+](=O)[O-])cc2)o1` belongs 15.1 µM (inactive); to `COC(=O)c1cn(NC(=O)c2cnccn2)c(=O)c2ccccc12`, 8.67 µM.
To `N[C@@H](Cc1ccccc1)c1nnc(SC/C=C/c2ccccc2)o1` belongs 3.49 µM.
`O=C(COC(=O)C1CC2C=CC1C2)Nc1ccccc1` (centres undefined): the IC50 is 35.7 µM (inactive).
As for `CCOC(=O)CC(=O)Nc1ccc(C(=O)OCC)cc1`, the IC50 is 5.23 µM.
To `CCCCn1c(=O)c(C(=O)Nc2nnc(C(C)C)s2)c(O)c2ccccc21` belongs 1.87 µM; to `COc1ccc(OC(=O)C2CC(=O)N(c3ccc(C)cc3)C2)cc1` (centres undefined), 9.65 µM; to `Cc1cccc(OCCN2CSC(=S)N(C)C2)c1`, 16.4 µM (inactive).
In the case of `CC(C)=CC1C(C(=O)Nc2ccc(Br)cn2)C1(C)C` (centres undefined) it was 3.57 µM.
For the compound `CCOc1ccc(C(=O)Nc2ccc(N3CCN(C)CC3)cc2)cc1Br`, the IC50 was 30.5 µM (inactive).
`COc1cccc2sc(Nc3nnc(-c4ccc(F)cc4)o3)nc12`: the IC50 was 2.67 µM.
In the case of `C=Cc1cccc(NC(=O)COc2ccccc2)c1` it was 5.75 µM; in that of `O=[N+]([O-])c1cc2oc3c(c2c(C=NCc2ccccc2)c1O)CCCC3`, 2.89 µM; in that of `COC(=O)c1ccc(Cn2cc(C(F)(F)F)cc([N+](=O)[O-])c2=O)cc1`, 1.7 µM.
Consider `Nn1c(SCCOc2ccc(Cl)cc2)nnc1-c1cccnc1`, for which the IC50 was 23.5 µM (inactive).
To `CCS(=O)(=O)c1c([N+](=O)[O-])ncn1C` belongs 19.5 µM (inactive); to `COc1ccccc1/C=C/C=N/NC(=O)c1ccncc1`, 1.08 µM; to `CC(C)(C)NCc1cc(Br)ccc1OCc1cccs1`, 9.07 µM.
In the case of `CN=C1S/C(=C\c2ccc(OCC(=O)OC)c(OC)c2)C(=O)N1C` it was 16.5 µM (inactive).
